In US10150760B2, “Compounds for use in preparing heterocyclic triazole agonists of the APJ receptor” (AMGEN INC., priority 2016, dated 2018):

Target: human APJ receptor (Homo sapiens (Human), UniProt P35414)
Experiment: [35S]GTPγS binding assay on membranes from CHO cells stably expressing human APJ receptor
Assay type: biochemical
Conditions: read-out: Activity hAPJ SPA EC50 IP
Method in brief: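 Agonist-driven [35S]GTPγS (0.2 nM) binding was measured over 90 min at room temperature on human APJ-expressing CHO membranes with bead capture, in buffer containing 3 μM GDP, 200 mM NaCl and 5 mM MgCl2 (pH 7.5). Excess unlabelled GTPγS (100 μM) gave nonspecific signal; EC50 from non-linear fits.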

human APJ receptor, sequence (P35414 whole entry): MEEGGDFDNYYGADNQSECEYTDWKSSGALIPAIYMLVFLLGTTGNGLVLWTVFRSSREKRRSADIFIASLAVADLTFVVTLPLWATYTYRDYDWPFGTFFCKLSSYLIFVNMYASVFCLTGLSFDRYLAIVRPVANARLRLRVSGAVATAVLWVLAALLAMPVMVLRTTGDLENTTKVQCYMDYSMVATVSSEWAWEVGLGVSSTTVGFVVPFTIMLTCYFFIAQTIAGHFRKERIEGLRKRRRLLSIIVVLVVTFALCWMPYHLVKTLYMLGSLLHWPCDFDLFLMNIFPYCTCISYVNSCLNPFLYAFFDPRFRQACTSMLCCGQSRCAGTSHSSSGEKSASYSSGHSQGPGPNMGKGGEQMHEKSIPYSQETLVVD

Structure (SMILES)	EC50 [nM]
COc1cccc(OC)c1-n1c(NS(=O)(=O)[C@@H](C)[C@@H](OC(C)C)c2ncc(C)cn2)nnc1[C@H]1CCOC1 (single isomer, unassigned) [Example 99.0, (1S,2S)-N-(4-(2,6-dimethoxyphenyl)-5-((R)-tetrahydrofuran-3-yl)-4H-1,2,4-triazol-3-yl)-1-isopropoxy-1-(5-methylpyrimidin-2-yl)propane-2-sulfonamide or (1S,2S)-N-(4-(2,6-dimethoxyphenyl)-5-((S)-tetrahydrofuran-3-yl)-4H-1,2,4-triazol-3-yl)-1-isopropoxy-1-(5-methylpyrimidin-2-yl)propane-2-sulfonamide]	2.5
COc1cccc(OC)c1-n1c(NS(=O)(=O)[C@@H](C)[C@@H](OC(C)C)c2ncc(C)cn2)nnc1[C@H]1CCOC1 (single isomer, unassigned) [Example 100.0, (1S,2S)-N-(4-(2,6-dimethoxyphenyl)-5-((R)-tetrahydrofuran-3-yl)-4H-1,2,4-triazol-3-yl)-1-isopropoxy-1-(5-methylpyrimidin-2-yl)propane-2-sulfonamide or (1S,2S)-N-(4-(2,6-dimethoxyphenyl)-5-((S)-tetrahydrofuran-3-yl)-4H-1,2,4-triazol-3-yl)-1-isopropoxy-1-(5-methylpyrimidin-2-yl)propane-2-sulfonamide]	24
COc1ncnc(OC)c1-n1c(NS(=O)(=O)[C@@H](C)[C@H](C)c2ncc(Cl)cn2)nnc1[C@H]1CCCOC1 (single isomer, unassigned) [Example 101.0, (2S,3R)-3-(5-chloropyrimidin-2-yl)-N-(4-(4,6-dimethoxypyrimidin-5-yl)-5-((S)-tetrahydro-2H-pyran-3-yl)-4H-1,2,4-triazol-3-yl)butane-2-sulfonamide or (2S,3R)-3-(5-chloropyrimidin-2-yl)-N-(4-(4,6-dimethoxypyrimidin-5-yl)-5-((R)-tetrahydro-2H-pyran-3-yl)-4H-1,2,4-triazol-3-yl)butane-2-sulfonamide]	260
COc1ncnc(OC)c1-n1c(NS(=O)(=O)[C@@H](C)[C@H](C)c2cnc(C)cn2)nnc1[C@H]1CCCO1 (single isomer, unassigned) [Example 104.0, (2S,3R)-N-(4-(4,6-dimethoxypyrimidin-5-yl)-5-((S)-tetrahydrofuran-2-yl)-4H-1,2,4-triazol-3-yl)-3-(5-methylpyrazin-2-yl)butane-2-sulfonamide or (2S,3R)-N-(4-(4,6-dimethoxypyrimidin-5-yl)-5-((R)-tetrahydrofuran-2-yl)-4H-1,2,4-triazol-3-yl)-3-(5-methylpyrazin-2-yl)butane-2-sulfonamide]	330
COc1ncnc(OC)c1-n1c(NS(=O)(=O)[C@@H](C)[C@H](C)c2cnc(C)cn2)nnc1[C@H]1CCCO1 (single isomer, unassigned) [Example 105.0, (2S,3R)-N-(4-(4,6-dimethoxypyrimidin-5-yl)-5-((S)-tetrahydrofuran-2-yl)-4H-1,2,4-triazol-3-yl)-3-(5-methylpyrazin-2-yl)butane-2-sulfonamide or (2S,3R)-N-(4-(4,6-dimethoxypyrimidin-5-yl)-5-((R)-tetrahydrofuran-2-yl)-4H-1,2,4-triazol-3-yl)-3-(5-methylpyrazin-2-yl)butane-2-sulfonamide]	88
COc1cccc(OC)c1-n1c(NS(=O)(=O)[C@@H](C)[C@H](C)c2cnc(C)cn2)nnc1[C@H]1CCCCO1 (single isomer, unassigned) [Example 106.0, (2S,3R)-N-(4-(2,6-dimethoxyphenyl)-5-((S)-tetrahydro-2H-pyran-2-yl)-4H-1,2,4-triazol-3-yl)-3-(5-methylpyrazin-2-yl)butane-2-sulfonamide or (2S,3R)-N-(4-(2,6-dimethoxyphenyl)-5-((R)-tetrahydro-2H-pyran-2-yl)-4H-1,2,4-triazol-3-yl)-3-(5-methylpyrazin-2-yl)butane-2-sulfonamide]	53
COc1cccc(OC)c1-n1c(NS(=O)(=O)[C@@H](C)[C@H](C)c2cnc(C)cn2)nnc1[C@H]1CCCCO1 (single isomer, unassigned) [Example 107.0, (2S,3R)-N-(4-(2,6-dimethoxyphenyl)-5-((S)-tetrahydro-2H-pyran-2-yl)-4H-1,2,4-triazol-3-yl)-3-(5-methylpyrazin-2-yl)butane-2-sulfonamide or (2S,3R)-N-(4-(2,6-dimethoxyphenyl)-5-((R)-tetrahydro-2H-pyran-2-yl)-4H-1,2,4-triazol-3-yl)-3-(5-methylpyrazin-2-yl)butane-2-sulfonamide]	5.1
COc1cccc(OC)c1-n1c(NS(=O)(=O)[C@@H](C)[C@H](OC)c2ncc(Cl)cn2)nnc1[C@H]1CCC(C)(C)O1 (single isomer, unassigned) [Example 108.0, (1R,2S)-1-(5-chloropyrimidin-2-yl)-N-(4-(2,6-dimethoxyphenyl)-5-((S)-5,5-dimethyltetrahydrofuran-2-yl)-4H-1,2,4-triazol-3-yl)-1-methoxypropane-2-sulfonamide or (1R,2S)-1-(5-chloropyrimidin-2-yl)-N-(4-(2,6-dimethoxyphenyl)-5-((R)-5,5-dimethyltetrahydrofuran-2-yl)-4H-1,2,4-triazol-3-yl)-1-methoxypropane-2-sulfonamide]	25
COc1cccc(OC)c1-n1c(NS(=O)(=O)[C@@H](C)[C@H](OC)c2ncc(Cl)cn2)nnc1[C@H]1CCC(C)(C)O1 (single isomer, unassigned) [Example 109.0, (1R,2S)-1-(5-chloropyrimidin-2-yl)-N-(4-(2,6-dimethoxyphenyl)-5-((S)-5,5-dimethyltetrahydrofuran-2-yl)-4H-1,2,4-triazol-3-yl)-1-methoxypropane-2-sulfonamide or (1R,2S)-1-(5-chloropyrimidin-2-yl)-N-(4-(2,6-dimethoxyphenyl)-5-((R)-5,5-dimethyltetrahydrofuran-2-yl)-4H-1,2,4-triazol-3-yl)-1-methoxypropane-2-sulfonamide]	0.16
CO[C@H](c1ncc(Cl)cn1)[C@H](C)S(=O)(=O)Nc1nnc([C@H]2CCCO2)n1C1(C)CC1 (single isomer, unassigned) [Example 110.0, (1R,2S)-1-(5-chloropyrimidin-2-yl)-1-methoxy-N-(4-(1-methylcyclopropyl)-5-((S)-tetrahydrofuran-2-yl)-4H-1,2,4-triazol-3-yl)propane-2-sulfonamide or (1R,2S)-1-(5-chloropyrimidin-2-yl)-1-methoxy-N-(4-(1-methylcyclopropyl)-5-((R)-tetrahydrofuran-2-yl)-4H-1,2,4-triazol-3-yl)propane-2-sulfonamide]	30
CO[C@H](c1ncc(Cl)cn1)[C@H](C)S(=O)(=O)Nc1nnc([C@H]2CCCO2)n1C1(C)CC1 (single isomer, unassigned) [Example 111.0, (1R,2S)-1-(5-chloropyrimidin-2-yl)-1-methoxy-N-(4-(1-methylcyclopropyl)-5-((S)-tetrahydrofuran-2-yl)-4H-1,2,4-triazol-3-yl)propane-2-sulfonamide or (1R,2S)-1-(5-chloropyrimidin-2-yl)-1-methoxy-N-(4-(1-methylcyclopropyl)-5-((R)-tetrahydrofuran-2-yl)-4H-1,2,4-triazol-3-yl)propane-2-sulfonamide]	240
CO[C@H](c1ncc(Cl)cn1)[C@H](C)S(=O)(=O)Nc1nnc([C@H]2CCCCO2)n1C1(C)CC1 (single isomer, unassigned) [Example 113.0, (1R,2S)-1-(5-chloropyrimidin-2-yl)-1-methoxy-N-(4-(1-methylcyclopropyl)-5-((S)-tetrahydro-2H-pyran-2-yl)-4H-1,2,4-triazol-3-yl)propane-2-sulfonamide or (1R,2S)-1-(5-chloropyrimidin-2-yl)-1-methoxy-N-(4-(1-methylcyclopropyl)-5-((R)-tetrahydro-2H-pyran-2-yl)-4H-1,2,4-triazol-3-yl)propane-2-sulfonamide]	260
COc1cccc(OC)c1-n1c(NS(=O)(=O)[C@@H](C)[C@H](OC)c2ncc(Cl)cn2)nnc1[C@H]1CCO[C@@H]1C (single isomer, unassigned) [Example 114.0, (1R,2S)-1-(5-chloropyrimidin-2-yl)-N-(4-(2,6-dimethoxyphenyl)-5-((2R,3R)-2-methyltetrahydrofuran-3-yl)-4H-1,2,4-triazol-3-yl)-1-methoxypropane-2-sulfonamide or (1R,2S)-1-(5-chloropyrimidin-2-yl)-N-(4-(2,6-dimethoxyphenyl)-5-((2S,3S)-2-methyltetrahydrofuran-3-yl)-4H-1,2,4-triazol-3-yl)-1-methoxypropane-2-sulfonamide]	110
COc1cccc(OC)c1-n1c(NS(=O)(=O)[C@@H](C)[C@H](OC)c2ncc(Cl)cn2)nnc1[C@H]1CCO[C@@H]1C (single isomer, unassigned) [Example 115.0, (1R,2S)-1-(5-chloropyrimidin-2-yl)-N-(4-(2,6-dimethoxyphenyl)-5-((2R,3S)-2-methyltetrahydrofuran-3-yl)-4H-1,2,4-triazol-3-yl)-1-methoxypropane-2-sulfonamide or (1R,2S)-1-(5-chloropyrimidin-2-yl)-N-(4-(2,6-dimethoxyphenyl)-5-((2S,3R)-2-methyltetrahydrofuran-3-yl)-4H-1,2,4-triazol-3-yl)-1-methoxypropane-2-sulfonamide]	210
COc1cccc(OC)c1-n1c(NS(=O)(=O)[C@@H](C)[C@H](OC)c2ncc(Cl)cn2)nnc1[C@H]1CCO[C@H]1C (single isomer, unassigned) [Example 116.0, (1R,2S)-1-(5-chloropyrimidin-2-yl)-N-(4-(2,6-dimethoxyphenyl)-5-((2R,3S)-2-methyltetrahydrofuran-3-yl)-4H-1,2,4-triazol-3-yl)-1-methoxypropane-2-sulfonamide or (1R,2S)-1-(5-chloropyrimidin-2-yl)-N-(4-(2,6-dimethoxyphenyl)-5-((2S,3R)-2-methyltetrahydrofuran-3-yl)-4H-1,2,4-triazol-3-yl)-1-methoxypropane-2-sulfonamide]	190
